# Patent US11607423B2, “Combination of a cannabinoid and a chemotheraopeutic agent for the treatment of breast cancer” (Akos Biosciences, Inc., priority 2018, dated 2023)
# Legend:
# [1] = tested on: breast cancer cell line MCF7; test: MCF7 cell viability by cell counting with trypan blue after 48 h; assay type: cell-based; conditions: CBD 0.1, 1 or 10 μM, FIG. 1
# From the text: The breast cancer cell line MCF7, growing exponentially, was reset at a concentration of 1×10^4/ml and allowed to adhere overnight.
# pERK = pERK level by western blotting in MCF7 cells, relative to GAPDH loading control; assay type: cell-based; conditions: CBD 100 nM, 1 μM or 10 μM, 48 h, band density relative to GAPDH, 5 separate experiments, FIG. 2
# Method: The breast cancer cell line MCF7, growing exponentially, was reset at a concentration of 1×10^4/ml and allowed to adhere overnight. Cannabidiol (CBD) was added at 100 nM, 1 μM, or 10 μM, and cells were harvested for standard western blotting techniques after 48 h. Immunoprobing was performed using anti-pERK antibodies, and the densities of each band determined. These values were then expressed relative to a GAPDH loading control.
smiles,measurement,setting,value
"C=C(C)[C@@H]1CCC(C)=C[C@H]1c1c(O)cc(CCCCC)cc1O [CBD, cannabidiol]",viability of cancer cells,[1],unaffected
same,pERK relative to controls,pERK,increased
